Source: ChEMBL document CHEMBL1201862, “PubChem BioAssay data set” (2004)
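Method: 48-hour compound exposure of cells in 96-well plates, five concentrations, linear interpolation of endpoints. Abbreviation: GI50, concentration required for 50% inhibition of growth.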 Active and inactive are the calls of the source. No stated cut-off is given here; in the data, active = GI50 up to about 1.1 µM and inactive = higher.

Columns and labels:
Test in all cases: NCI anticancer screen, dose series, 48 h
CAKI-1 = test system: CAKI-1
NCI-H522 = test system: NCI-H522
HCT-116 = test system: HCT-116
SR = test system: SR
MDA-MB-231 = test system: MDA-MB-231
BT-549 = test system: BT-549
ACHN = test system: ACHN
SK-MEL-5 = test system: SK-MEL-5
RPMI-8226 = test system: RPMI-8226
KM12 = test system: KM12
MDA-MB-435 = test system: MDA-MB-435
HOP-92 = test system: HOP-92
K562 = test system: K562
SNB-19 = test system: SNB-19
LOX IMVI = test system: LOX IMVI
HT-29 = test system: HT-29
OVCAR-8 = test system: OVCAR-8
M14 = test system: M14
HCC 2998 = test system: HCC 2998
HL-60 = test system: HL-60

Row | Structure (SMILES) | GI50 (CAKI-1) | GI50 (NCI-H522) | GI50 (HCT-116) | GI50 (SR) | GI50 (MDA-MB-231) | GI50 (BT-549) | GI50 (ACHN) | GI50 (SK-MEL-5) | GI50 (RPMI-8226) | GI50 (KM12) | GI50 (MDA-MB-435) | GI50 (HOP-92) | GI50 (K562) | GI50 (SNB-19) | GI50 (LOX IMVI) | GI50 (HT-29) | GI50 (OVCAR-8) | GI50 (M14) | GI50 (HCC 2998) | GI50 (HL-60)
1 | O=C1c2ccccc2C(=O)c2c(Nc3cc4c5c(ccc6c7ccc8c9c(cc(Nc%10cccc%11c%10C(=O)c%10ccccc%10C%11=O)c(c3c56)c97)-c3ccccc3C8=O)C(=O)c3ccccc3-4)cccc21 | 67 µM (inactive) | 71 µM (inactive) | 88.9 µM (inactive) | 43.7 µM (inactive) | 31.6 µM (inactive) | 46.3 µM (inactive) | 36.1 µM (inactive) | > 100 µM (inactive) | > 100 µM (inactive) | > 100 µM (inactive) | 41.1 µM (inactive) | 41.8 µM (inactive) | 75 µM (inactive) | 29.9 µM (inactive) | 72.1 µM (inactive) | > 100 µM (inactive) | 25 µM (inactive) | > 100 µM (inactive) | – | –
2 | CCOC(=O)[C@@]12C[C@](/C=C/OC)(O[Si](C)(C)C)[C@@]13c1cc(OC)c(OC)cc1CCN3C(=O)C2=O | > 100 µM (inactive) | – | > 100 µM (inactive) | > 100 µM (inactive) | > 100 µM (inactive) | > 100 µM (inactive) | > 100 µM (inactive) | > 100 µM (inactive) | > 100 µM (inactive) | > 100 µM (inactive) | > 100 µM (inactive) | > 100 µM (inactive) | > 100 µM (inactive) | > 100 µM (inactive) | > 100 µM (inactive) | > 100 µM (inactive) | > 100 µM (inactive) | > 100 µM (inactive) | – | –
3 | O=C1/C(=C/c2cccc([N+](=O)[O-])c2)N=C(c2ccccc2)N1c1nc2ccc(Sc3ccccc3)cc2[nH]1 | 65.5 µM (inactive) | 32.9 µM (inactive) | 41.6 µM (inactive) | 24.8 µM (inactive) | 93.1 µM (inactive) | 88.7 µM (inactive) | > 100 µM (inactive) | 28.8 µM (inactive) | 33.3 µM (inactive) | 31.8 µM (inactive) | 13.3 µM (inactive) | 71.4 µM (inactive) | 30.9 µM (inactive) | 80 µM (inactive) | 38.5 µM (inactive) | 45.2 µM (inactive) | 45.1 µM (inactive) | 38.9 µM (inactive) | 67.6 µM (inactive) | –
4 | C/C=C1/CN2CC[C@@H]3c4ccccc4N4[C@H](C(=O)OC)[C@H]1C[C@H]2[C@]34/C=C/C1=COC[C@@H]2[C@H]1C[C@H]1c3c(c4ccccc4n3C)C[C@@H]2N1C | 4.1 µM (inactive) | – | 3.89 µM (inactive) | 6.1 µM (inactive) | 4.02 µM (inactive) | 4.32 µM (inactive) | 4.03 µM (inactive) | 3.89 µM (inactive) | 4.09 µM (inactive) | – | 3.26 µM (inactive) | 4.28 µM (inactive) | 6.15 µM (inactive) | 3.64 µM (inactive) | 4.19 µM (inactive) | 2.77 µM (inactive) | 4.11 µM (inactive) | 4.37 µM (inactive) | 0.345 µM (active) | –
5 | CCOC(=O)CC[C@H](NC(=O)N[C@H](C)c1ccccc1)C(=O)OCC | > 100 µM (inactive) | – | > 100 µM (inactive) | 84.9 µM (inactive) | 28.6 µM (inactive) | > 100 µM (inactive) | 53.5 µM (inactive) | 37 µM (inactive) | 41 µM (inactive) | 73.1 µM (inactive) | 27.9 µM (inactive) | 22 µM (inactive) | 36.1 µM (inactive) | > 100 µM (inactive) | 55.7 µM (inactive) | > 100 µM (inactive) | > 100 µM (inactive) | 14.8 µM (inactive) | 25.9 µM (inactive) | > 100 µM (inactive)
6 | COc1ccc2c(c1)C(=O)CC1c3cnccc3C(=O)N21 (stereo not drawn) | > 100 µM (inactive) | > 100 µM (inactive) | > 73.6 µM (inactive) | > 85.5 µM (inactive) | > 100 µM (inactive) | > 100 µM (inactive) | > 100 µM (inactive) | > 100 µM (inactive) | > 92 µM (inactive) | > 100 µM (inactive) | > 31.6 µM (inactive) | > 100 µM (inactive) | > 94.8 µM (inactive) | > 72.1 µM (inactive) | > 100 µM (inactive) | > 100 µM (inactive) | > 100 µM (inactive) | > 100 µM (inactive) | > 86.1 µM (inactive) | –
7 | c1csc(-c2ccsc2-c2ccsc2)c1 | > 100 µM (inactive) | – | 60.8 µM (inactive) | 33.1 µM (inactive) | > 100 µM (inactive) | > 100 µM (inactive) | > 100 µM (inactive) | 70 µM (inactive) | 30.2 µM (inactive) | 48.4 µM (inactive) | 39.3 µM (inactive) | > 100 µM (inactive) | 73.8 µM (inactive) | – | > 100 µM (inactive) | > 100 µM (inactive) | 91.2 µM (inactive) | > 100 µM (inactive) | 28.3 µM (inactive) | 33.1 µM (inactive)
8 | NCCC1([N+](=O)[O-])C=CN=CC1 (stereo not drawn) | > 100 µM (inactive) | > 100 µM (inactive) | > 100 µM (inactive) | > 100 µM (inactive) | > 100 µM (inactive) | > 100 µM (inactive) | > 100 µM (inactive) | > 100 µM (inactive) | > 100 µM (inactive) | > 100 µM (inactive) | > 100 µM (inactive) | < 0.01 µM (active) | > 100 µM (inactive) | > 100 µM (inactive) | – | > 100 µM (inactive) | > 100 µM (inactive) | > 100 µM (inactive) | – | > 100 µM (inactive)
9 | O=C(OCc1ccccc1)C(Cc1ccc(OCc2ccccc2)cn1)NC(=O)C(F)(F)F (stereo not drawn) | > 100 µM (inactive) | 79.8 µM (inactive) | > 100 µM (inactive) | 86.9 µM (inactive) | > 100 µM (inactive) | > 100 µM (inactive) | > 100 µM (inactive) | 35.4 µM (inactive) | 92.5 µM (inactive) | > 100 µM (inactive) | 92.9 µM (inactive) | > 100 µM (inactive) | 42.8 µM (inactive) | > 100 µM (inactive) | 92.3 µM (inactive) | 57.9 µM (inactive) | > 100 µM (inactive) | – | > 100 µM (inactive) | 56.2 µM (inactive)
10 | Cc1ccc(S(=O)(=O)N(CCN)c2cc3c4c(c2)Oc2cccc5c2C4c2c(cccc2O3)O5)cc1 | – | – | 16.3 µM (inactive) | 0.724 µM (active) | 17.9 µM (inactive) | 47.2 µM (inactive) | 44.7 µM (inactive) | 19.9 µM (inactive) | 30.8 µM (inactive) | > 100 µM (inactive) | 20.7 µM (inactive) | 0.9 µM (active) | 30 µM (inactive) | 29.4 µM (inactive) | 23.2 µM (inactive) | 14.9 µM (inactive) | 11.1 µM (inactive) | 25.6 µM (inactive) | > 100 µM (inactive) | –
11 | N#Cc1cccc(C2ON=C(c3ccc([N+](=O)[O-])cc3)N2C23CC4CC(CC(C4)C2)C3)c1 (stereo not drawn) | 11.7 µM (inactive) | 24.3 µM (inactive) | 6.21 µM (inactive) | 7.71 µM (inactive) | 63.7 µM (inactive) | 82.6 µM (inactive) | > 100 µM (inactive) | 43.6 µM (inactive) | > 100 µM (inactive) | > 100 µM (inactive) | > 100 µM (inactive) | 69.2 µM (inactive) | > 100 µM (inactive) | > 100 µM (inactive) | 74.1 µM (inactive) | > 100 µM (inactive) | > 100 µM (inactive) | 57.8 µM (inactive) | > 100 µM (inactive) | 8.69 µM (inactive)
12 | CN1CCOC1(C)CO (stereo not drawn) | > 100 µM (inactive) | > 100 µM (inactive) | > 100 µM (inactive) | > 100 µM (inactive) | > 100 µM (inactive) | > 100 µM (inactive) | > 100 µM (inactive) | > 100 µM (inactive) | > 100 µM (inactive) | > 100 µM (inactive) | > 100 µM (inactive) | > 100 µM (inactive) | > 100 µM (inactive) | > 100 µM (inactive) | > 100 µM (inactive) | > 100 µM (inactive) | > 100 µM (inactive) | > 100 µM (inactive) | – | 50.8 µM (inactive)
13 | CC(NNC(=O)c1cc[n+]([BH2-]C#N)cc1)c1cccc(F)c1 (stereo not drawn) | > 100 µM (inactive) | > 100 µM (inactive) | > 100 µM (inactive) | > 100 µM (inactive) | > 100 µM (inactive) | > 100 µM (inactive) | > 100 µM (inactive) | 94.2 µM (inactive) | > 100 µM (inactive) | > 100 µM (inactive) | > 100 µM (inactive) | > 100 µM (inactive) | > 100 µM (inactive) | > 100 µM (inactive) | > 100 µM (inactive) | – | > 100 µM (inactive) | > 100 µM (inactive) | > 100 µM (inactive) | 50.5 µM (inactive)
14 | CCCC1CCC(=C2C(=O)CCC2=O)O1 (stereo not drawn) | > 100 µM (inactive) | > 100 µM (inactive) | > 100 µM (inactive) | > 100 µM (inactive) | > 100 µM (inactive) | > 100 µM (inactive) | > 100 µM (inactive) | – | > 100 µM (inactive) | > 100 µM (inactive) | > 100 µM (inactive) | > 100 µM (inactive) | > 100 µM (inactive) | > 100 µM (inactive) | > 100 µM (inactive) | > 100 µM (inactive) | > 100 µM (inactive) | > 100 µM (inactive) | > 100 µM (inactive) | 0.364 µM (active)
